Data taken from the supplement of paper PMC11208160.

Test: recombinant barcode read abundance after kanamycin selection (control-corrected) (log10(CPM+1)); higher = more efficient recombination; sequences stand for … in AGTGCAGAGAAAATCGGCCAGTTTTCTCTGCCTGCAGTCCGCATGCCGT…AGATTTATGCAGCGGACTGCCTTTCTCCCAAAGTGATAAACCGGACAGTATCATGGACCGGTTTTCCCGGTAATCCGTATTTGCAAGGTTGGTTTCACT; site = the 11-nt target
Procedure, shortened: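 Recombination efficiency was calculated from barcode counts at recombinant junctions, normalized to counts per million, averaged and corrected by the control. Each value is given as log10(CPM+1). The constructs were Gibson-cloned oligos (promoter, target, barcode, J23119-driven first 104 bridge RNA bases) in a vector with the remaining 73 bp and a T7-inducible recombinase, co-electroporated into E. coli with a donor plasmid and plated in duplicate on chloramphenicol/ampicillin LB agar (control) or chloramphenicol/ampicillin/kanamycin with 0.1 mM IPTG.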
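Also: IS621 recombinase and bridge RNA in Escherichia coli cells.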

| Sequence | recombinant barcode read abundance (log10) |
| --- | --- |
| CAGGGGACTTGGGTTCTAACCTGTTGCCG (site CAGGGGACTCG) | 0.734 |
| CAGGGGTCTTGGGTTCTAACCTGTTGCAT (site AGCCTCCCTTG) | 0.0284 |
| CAGGGGTCTTGGGTTCTAACCTGTTGCAT (site CAGGGGTCTAT) | 2.04 |
| CAGTAATCTTGGGTTCTAACCTGTTGCCT (site CAGTAATCTAG) | 0.683 |
| CAGTAATCTTGGGTTCTAACCTGTTGCCT (site CAGTACTCTAG) | 0.138 |
| CAGTAATCTTGGGTTCTAACCTGTTGCCT (site CAGTAGTCTAG) | 0.169 |
| CAGTAATCTTGGGTTCTAACCTGTTGCCT (site CAGTATTCTAG) | 0 |
| CAGTCTACTTGGGTTCTAACCTGTTGCCT (site CAGTCTACTAG) | 0.115 |
| CAGTCTACTTGGGTTCTAACCTGTTGCCT (site CCGTCTACTAG) | 0.26 |
| CAGTCTACTTGGGTTCTAACCTGTTGCCT (site CGGTCTACTAG) | 0.132 |
| CAGTCTACTTGGGTTCTAACCTGTTGCCT (site CTGTCTACTAG) | 0.0878 |
| CATAACTCTTGGGTTCTAACCTGTTGCCT (site AATAACTCTAG) | 0.0585 |
| CATAACTCTTGGGTTCTAACCTGTTGCCT (site CATAACTCTAG) | 1.3 |
| CATAACTCTTGGGTTCTAACCTGTTGCCT (site GATAACTCTAG) | 0.331 |
| CATAACTCTTGGGTTCTAACCTGTTGCCT (site TATAACTCTAG) | 0.0747 |
| CATAAGCCTTGGGTTCTAACCTGTTGCCT (site CATAAGCCTAG) | 0.633 |
| CATAAGCCTTGGGTTCTAACCTGTTGCCT (site CATCAGCCTAG) | 0.07 |
| CATAAGCCTTGGGTTCTAACCTGTTGCCT (site CATGAGCCTAG) | 0.0152 |
| CATAAGCCTTGGGTTCTAACCTGTTGCCT (site CATTAGCCTAG) | 0.0852 |
| CATAGATCTTGGGTTCTAACCTGTTGCAT (site ATCTAGGCTCG) | 0.0128 |
| CATAGATCTTGGGTTCTAACCTGTTGCAT (site CATAGATCTAT) | 1.22 |
| CATAGTCCTTGGGTTCTAACCTGTTGCCT (site CAGAGTCCTAA) | 0.0573 |

| Sequence | recombinant barcode read abundance (log10) |
| --- | --- |
| CATAGTCCTTGGGTTCTAACCTGTTGCCT (site CATAGTCCTAG) | 0.605 |
| CATATAGCTTGGGTTCTAACCTGTTGCAT (site CATATAGCTAT) | 0.693 |
| CATATAGCTTGGGTTCTAACCTGTTGCAT (site GATCTAGCTAT) | 0.667 |
| CATCAAGCTTGGGTTCTAACCTGTTGCCT (site CATCAAGCTAG) | 0.929 |
| CATCAAGCTTGGGTTCTAACCTGTTGCCT (site GTATGGACTTT) | 0.0466 |
| CATCCGACTTGGGTTCTAACCTGTTGCTC (site AGATTTCCTAT) | 0.122 |
| CATCCGACTTGGGTTCTAACCTGTTGCTC (site CATCCGACTGA) | 0.193 |
| CATCCGCCTTGGGTTCTAACCTGTTGCCT (site CATCCGACTAG) | 0.0105 |
| CATCCGCCTTGGGTTCTAACCTGTTGCCT (site CATCCGCCTAG) | 1.11 |
| CATCCGCCTTGGGTTCTAACCTGTTGCCT (site CATCCGGCTAG) | 0.0751 |
| CATCCGCCTTGGGTTCTAACCTGTTGCCT (site CATCCGTCTAG) | 0.0465 |
| CATCGAGCTTGGGTTCTAACCTGTTGCCG (site CAACGAGCTCG) | 0.228 |
| CATCGAGCTTGGGTTCTAACCTGTTGCCG (site CACCGAGCTCG) | 0.43 |
| CATCGAGCTTGGGTTCTAACCTGTTGCCG (site CAGCGAGCTCG) | 0.236 |
| CATCGAGCTTGGGTTCTAACCTGTTGCCG (site CATCGAGCTCG) | 0.283 |
| CATCGCTCTTGGGTTCTAACCTGTTGCTT (site CACCGTTCTAA) | 0.0858 |
| CATCGCTCTTGGGTTCTAACCTGTTGCTT (site CATCGCTCTAA) | 0.0993 |
| CATGCGACTTGGGTTCTAACCTGTTGCTG (site CATGCGACTCA) | 0.459 |
| CATGCGACTTGGGTTCTAACCTGTTGCTG (site CATGCTACTGA) | 0.351 |
| CATGCGCCTTGGGTTCTAACCTGTTGCGG (site CATGCGCCTCC) | 1.26 |
| CATGCGCCTTGGGTTCTAACCTGTTGCGG (site CATGTGTCTCC) | 0.0282 |
